In patent US9353150B2, “Substituted pyrazino[1′,2′:1 ,5]pyrrolo[2,3-b]-indole-1,4-diones for cancer treatment” (Massachusetts Institute of Technology, priority 2012, dated 2016):
Entries after “also recorded” stand apart in the source; their conditions may differ. Like-named read-outs stand apart in the source and are kept apart here.

Columns and labels:
[1] = system: U-937 (hystiocytic lymphoma); assay: 72-hour IC50 determination for non-adherent cells using MTS; type: cell-based, human; settings: 72-hour exposure
Procedure, shortened: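 U-937 cells (5,000/well) in RPMI-1640 + 10% FBS were exposed to compounds in triplicate (1% DMSO final) for 72 h at 37 °C. Viability was read by PMS/MTS absorbance at 490 nm, with DMSO wells as live and cell-free wells as dead controls. IC50 came from three or more independent experiments.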

[2] = system: HeLa (cervical carcinoma); assay: 72-hour IC50 determination for adherent cells using sulforhodamine B (SRB); type: cell-based, human; settings: 72-hour exposure
Procedure, shortened: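 HeLa cells were seeded at 5,000 cells/well in RPMI-1640 with 10% FBS and exposed continuously for 72 hours to compounds on a half-log scale (1% DMSO final, triplicate). Cells were then TCA-fixed, stained with sulforhodamine B and read at 510 nm. IC50 values came from three or more independent experiments.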

786-O (renal carcinoma) = assay: as above; type: cell-based, human; settings: error is standard deviation of the mean, n ≧ 3, read-out: 786-O, 72-hour IC50 (Table E1-2)
Description: (§1) Certain provided compounds were tested in culture against a panel of three supplementary human cancer cell lines representing three additional tumor histologies (H460, lung carcinoma; 786-O, renal carcinoma; MCF-7, breast carcinoma). As shown in Table E1-2, the ETPs retain their potency across the cell lines. In some embodiments, a provided compound is active in all cell lines. In some embodiments, a provide compound can be used to selectively target certain cells and/or cancers. […] Without the intention to be limited, Applicant notes that certain cell lines could be more sensitive to provided compounds; for example, U-937 and HeLa are slightly more sensitive to the ETPs than the other three cell lines.
(§2) Cells were grown in media supplemented with fetal bovine serum (FBS) and antibiotics ([…]). Specifically, experiments were performed using the following cell lines and media compositions: U-937, HeLa, H460, and 786-O (RPMI-1640+10% FBS), and MCF7 (EMEM+10% FBS). Cells were incubated at 37° C. in a 5% CO2, 95% humidity atmosphere.
(§3) Adherent cells (HeLa, H460, 786-O, and MCF7) were added into 96-well plates (5,000 cells/well for HeLa cell line; 2,000 cells/well for H460, 786-O, and MCF7 cell lines) in 100 μL media and were allowed to adhere for 2-3 hours. Compounds were solubilized in DMSO as 100× stocks, added directly to the cells (100 μL final volume), and tested over a range of concentrations in triplicate (1% DMSO final) on a half-log scale. Concentrations tested ranged from […] to 10 μM, depending on the potency of the compound. DMSO and cell-free wells served as the live and dead control, respectively. After 72 hours of continuous exposure, the plates were evaluated using the SRB colorimetric assay as described previously (Vichai, V.; Kirtikara, K. Nature Prot. 2006, 1, 1112). Briefly, media was removed from the plate, and cells were fixed by the addition of 100 μL cold 10% trichloroacetic acid in water. After incubating at 4° C. for an hour, the plates were washed in water and allowed to dry. Sulforhodamine B was added as a 0.057% solution in 1% acetic acid (100 μL), and the plates were incubated at room temperature for 30 minutes, washed in 1% acetic acid, and allowed to dry. The dye was solubilized by adding 10 mM Tris base solution (pH 10.5, 200 μL) and incubating at room temperature for 30 minutes. Plates were read at λ=510 nm. IC50 values were determined from three or more independent experiments using TableCurve (San Jose, Calif.).

H460 (lung carcinoma) = assay: as above; type: cell-based, human; settings: error is standard deviation of the mean, n ≧ 3, read-out: H460, 72-hour IC50 (Table E1-2)
Description: as §1, §2, §3

MCF-7 (breast carcinoma) = assay: as above; type: cell-based, human; settings: error is standard deviation of the mean, n ≧ 3, read-out: MCF-7, 72-hour IC50 (Table E1-2)
Description: as §1, §2, §3

U-937 cells = assay: Apoptosis in U-937 cells with Annexin V-FITC and propidium iodide (AnnV/PI), flow cytometry; type: cell-based, human; settings: 24 hours, compounds at 100-times their 72-hour IC50
Description: DMSO stocks of compounds were added to a 24-well plate in singlicate (0.2% DMSO final). After compound addition, 0.5 mL of a U-937 cell suspension (250,000 cells/mL) was added and allowed to incubate for 24 hours. Following treatment, the cell suspensions were transferred to flow cytometry tubes and pelleted (500 g, 3 min). The media was removed by aspiration, and cells were re-suspended in 200 μL AnnV binding buffer (10 mM HEPES, pH 7.4, 140 mM NaCl, 2.5 mM CaCl2) with 5 μg/mL PI and 1:90 dilution of AnnV. Samples were analyzed using flow cytometry.

human cancer cell lines = assay: Anticancer activity in human cancer cell lines, not tied to one cell line; type: cell-based; settings: for anticancer activity, in words: human cancer cell lines, 72-hour exposure
Procedure, shortened: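 Cells exposed 72 h to compound on a half-log scale (1% DMSO final); adherent lines (HeLa, H460, 786-O, MCF7) read by SRB staining at 510 nm, U-937 by MTS/PMS absorbance at 490 nm. IC50 from three or more independent experiments.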

[3] = Solubility observed on isolation; settings: in CH2Cl2, CHCl3, EtOAc, MeOH, DMSO
[4] = Stability observed on isolation (concentration / solution); settings: observed during isolation and characterization
[5] = MTS, error is standard deviation of the mean, n ≧ 3, read-out: U-937, 72-hour IC50 (Table E1-1)
[6] = MTS, error is standard deviation of the mean, n ≧ 3, read-out: U-937, 72-hour IC50 (Table E1-2)
[7] = SRB, error is standard deviation of the mean, n ≧ 3, read-out: HeLa, 72-hour IC50 (Table E1-1)
[8] = SRB, error is standard deviation of the mean, n ≧ 3, read-out: HeLa, 72-hour IC50 (Table E1-2)
[9] = Homo sapiens, U-937, MTS, error is standard deviation of the mean, n ≧ 3, read-out: U-937, 72-hour IC50 (Table E1-1)
[10] = Homo sapiens, HeLa, SRB, error is standard deviation of the mean, n ≧ 3, read-out: HeLa, 72-hour IC50 (Table E1-1)

Row | SMILES | IC50 [1, 5] | IC50 [1, 6] | IC50 [2, 7] | IC50 [2, 8] | IC50 (786-O (renal carcinoma); 72-hour exposure) | IC50 (H460 (lung carcinoma); 72-hour exposure) | IC50 (MCF-7 (breast carcinoma); 72-hour exposure) | induction of apoptosis (phosphatidylserine exposure / propidium iodide inclusion) (U-937 cells) | anticancer activity, in words (human cancer cell lines) | IC50 [1, 9] | IC50 [2, 10] | also measured
1 | CN1C(=O)[C@@]23C[C@]4([C@]56C[C@@]78SSS[C@@](CO)(C(=O)N7[C@H]5Nc5ccccc56)N(C)C8=O)c5ccccc5N[C@@H]4N2C(=O)[C@]1(CO)SSS3 [Compound 5, (+)-chaetocin C] | 0.75 ± 0.13 nM | 0.75 ± 0.13 nM | 6.3 ± 0.6 nM | 6.3 ± 0.6 nM | 14.6 ± 0.8 nM | 26 ± 9.3 nM | 27 ± 11 nM | induce caspase-dependent apoptotic cell death; also recorded: induce apoptosis | active across the board | – | – | –
2 | CN1C(=O)[C@@]23C[C@]4(c5c[nH]c6ccccc56)c5ccccc5N(S(=O)(=O)c5ccccc5)[C@@H]4N2C(=O)[C@@H]1S3 [Compound 25, C3-(Indol-3′-yl)epimonothiodiketopiperazine] | – | – | – | – | – | – | – | – | – | 710 ± 134 nM | 1480 ± 182 nM | solubility [3]: Limited solubility
3 | CN1C(=O)C23CC4(c5c[nH]c6ccccc56)c5ccccc5N(S(=O)(=O)c5ccccc5)[C@@H]4N2C(=O)[C@H]1SC(=S)S3 (some centres unmarked) [Compound 36, C3-(Indol-3′-yl)dithiepanethione] | – | – | – | – | – | – | – | – | competent anticancer agents | 3.8 ± 0.9 nM | 33 ± 13 nM | IC50 ([1]; Homo sapiens, U-937, MTS, error is standard deviation of the mean, n ≧ 3, read-out: U-937, 72-hour IC50 (Table E1-2)): 3.8 ± 0.9 nM; IC50 ([2]; Homo sapiens, HeLa, SRB, error is standard deviation of the mean, n ≧ 3, read-out: HeLa, 72-hour IC50 (Table E1-2)): 33 ± 13 nM; IC50 (786-O (renal carcinoma); Homo sapiens, 786-0, 72-hour exposure): 133 ± 10 nM; IC50 (H460 (lung carcinoma); Homo sapiens, NCI-H460, 72-hour exposure): 190 ± 61 nM; IC50 (MCF-7 (breast carcinoma); Homo sapiens, MCF7, 72-hour exposure): 163 ± 7 nM; stability upon concentration or in solution [4]: tends to degrade
4 | CN1C(=O)[C@@]23C[C@]4([C@]56C[C@@]78SS[C@@](C)(C(=O)N7[C@H]5N(S(=O)(=O)c5ccccc5)c5ccccc56)N(C)C8=O)c5ccccc5N(S(=O)(=O)c5ccccc5)[C@@H]4N2C(=O)[C@]1(C)SS3 [Compound 14, Dimeric epidithiodiketopiperazine] | 0.18 ± 0.06 nM | 0.18 ± 0.06 nM | 0.09 ± 0.06 nM | 0.09 ± 0.06 nM | 1.55 ± 0.77 nM | 1.53 ± 0.85 nM | 1.65 ± 0.51 nM | induce caspase-dependent apoptotic cell death; also recorded: induce apoptosis | active across the board | – | – | IC50 ([1]; read-out: IC50 (U-937)): 0.18 nM; IC50 ([2]; read-out: IC50 (HeLa)): 0.09 nM; potency relative to (+)-12,12′-dideoxyverticillin A (3) (human cancer cell lines; more potent than the corresponding secondary aniline 3): 2 orders of magnitude
5 | CN1C(=O)C23CC4(c5c[nH]c6ccccc56)c5ccccc5N(S(=O)(=O)c5ccccc5)C4N2C(=O)C1SS3 (centres unmarked) [Compound 26, C3-(Indol-3′-yl) epidithiodiketopiperazine] | 2.8 ± 0.3 nM | 2.8 ± 0.3 nM | 41.7 ± 5.7 nM | 41.7 ± 5.7 nM | 62.7 ± 7.6 nM | 66 ± 19 nM | 67 ± 19 nM | induce caspase-dependent apoptotic cell death; also recorded: induce apoptosis | – | – | – | –
